Data reported in patent publication US20050208496A1, “Methods of testing for bronchial asthma or chronic obstructive pulmonary disease” (Genox Research, Inc., priority 2002, published 2005).
Where two headings read alike, the source gives them in different places.

System: respiratory epithelial cells

IL-13: human IL-13 (Peprotech, Inc.) added to the medium at 50 ng/mL to stimulate respiratory epithelial cells
PR01489 57777_at expression change (lot 1 Day 3 AI): −2.1 | PSCA (63958_at) expression change (lot 1 Day 3 AI): −9.8 | RAC2 32737_at expression change (lot 1 Day 3 AI): −4.3 | RGC32 (57044_s_at) expression change (lot 1 Day 3 AI): −2.7 | SCYB14 (65823_at) expression change (lot 1 Day 3 AI): −4.1 | SEMA4B (46709_at) expression change (lot 1 Day 3 AI): −2.8 | SERPINA3 (75248_at) expression change (lot 1 Day 3 AI): −4.8 | SLC34A2 (48048_at) expression change (lot 1 Day 3 AI): −2.8 | STEAP 40297_at expression change (lot 1 Day 3 AI): −2.2 | TCF8 33439_at expression change (lot 1 Day 3 AI): −2.5 | TGFBI (68339_at) expression change (lot 1 Day 3 AI): −2.9 | TNRC3 41246_at expression change (lot 1 Day 3 AI): −2.9 | TPM1 36790_at expression change (lot 1 Day 3 AI): −2.9 | TPM1 36791_g_at expression change (lot 1 Day 3 AI): −2.5 | TPM1 36792_at expression change (lot 1 Day 3 AI): −2.6 | UGB 39220_at expression change (lot 1 Day 3 AI): −6 | VIM 34091_s_at expression change (lot 1 Day 3 AI): −3.4 | W72331 49486 at expression change (lot 1 Day 3 AI): −8 | AA045020 (44676_at) expression change (lot 1 Day 3 IMM): −3.4 | AA059445 46293_at expression change (lot 1 Day 3 IMM): −3.9 | AA059458 (65626_at) expression change (lot 1 Day 3 IMM): −4.5 | AA456099 (59567_at) expression change (lot 1 Day 3 IMM): −2 | AI050855 (64285_at) expression change (lot 1 Day 3 IMM): −2.6 | AI468340 (72604_at) expression change (lot 1 Day 3 IMM): −2.2 | AI984780 (52384_s_at) expression change (lot 1 Day 3 IMM): −2.8 | AQP5 32909_at expression change (lot 1 Day 3 IMM): −3.1 | AW025596 52637_g_at expression change (lot 1 Day 3 IMM): −3.1 | COL12A1 (44730_at) expression change (lot 1 Day 3 IMM): −2.9 | DSC3a, b 47119_at expression change (lot 1 Day 3 IMM): −2.6 | HIN-1 (46200_at) expression change (lot 1 Day 3 IMM): −3.1 | IVL 36355_at expression change (lot 1 Day 3 IMM): −8.4 | KIAA1376 (62972_at) expression change (lot 1 Day 3 IMM): −2.5 | KLF7 34216_at expression change (lot 1 Day 3 IMM): −3.3 | KRT6B (62998_at) expression change (lot 1 Day 3 IMM): −3.5 | LCE 45605_at expression change (lot 1 Day 3 IMM): −2.1 | LOC51297 (49616_at) expression change (lot 1 Day 3 IMM): −4 | LOC51297 (55440_at) expression change (lot 1 Day 3 IMM): −10.5 | LOC51297 (55442_g_at) expression change (lot 1 Day 3 IMM): −4.9 | LOC55893 (64071_at) expression change (lot 1 Day 3 IMM): −2 | LOC129642 (42065_at) expression change (lot 1 Day 3 IMM): −2 | MGC12536 46924_at expression change (lot 1 Day 3 IMM): −2.1 | MGC14128 (51669_r_at) expression change (lot 1 Day 3 IMM): −2.2 | MGC14597 (46030_at) expression change (lot 1 Day 3 IMM): −3.1 | MGC16207 (65876_at) expression change (lot 1 Day 3 IMM): −4.5 | N71183 52473_at expression change (lot 1 Day 3 IMM): −2.4 | PR01489 57777_at expression change (lot 1 Day 3 IMM): −3.4 | RAC2 32737_at expression change (lot 1 Day 3 IMM): −3.5 | SLC11A3 (45826_at) expression change (lot 1 Day 3 IMM): −2.3 | STEAP 40297_at expression change (lot 1 Day 3 IMM): −2.3 | TCF8 33439_at expression change (lot 1 Day 3 IMM): −2.7 | TPM1 36791_g_at expression change (lot 1 Day 3 IMM): −2.2 | UCP2 37591_at expression change (lot 1 Day 3 IMM): −2.3 | UGB 39220_at expression change (lot 1 Day 3 IMM): −4 | VIM 34091_s_at expression change (lot 1 Day 3 IMM): −3.2 | W72331 49486 at expression change (lot 1 Day 3 IMM): −3.2 | AA045020 (44676_at) expression change (lot 2, Day 3, AI): −5.7 | AA059445 46293_at expression change (lot 2, Day 3, AI): −4.5 | AA059458 (65626_at) expression change (lot 2, Day 3, AI): −5.8 | AA079839 (69289_at) expression change (lot 2, Day 3, AI): −2 | AA160156 (47578_at) expression change (lot 2, Day 3, AI): −2.3 | AA369887 (87539_i_at) expression change (lot 2, Day 3, AI): −3.4 | AA456099 (59567_at) expression change (lot 2, Day 3, AI): −2.1 | AA772055 46104_at expression change (lot 2, Day 3, AI): −2.7 | AA779895 59136_at expression change (lot 2, Day 3, AI): −3.2 | AF052107 38262_at expression change (lot 2, Day 3, AI): −3.8 | AI050855 (64285_at) expression change (lot 2, Day 3, AI): −2.9 | AI264299 (84903_f_at) expression change (lot 2, Day 3, AI): −10.4 | AI432375 (49819_at) expression change (lot 2, Day 3, AI): −2.6 | AI468340 (72604_at) expression change (lot 2, Day 3, AI): −2.4 | AI669212 55436_at expression change (lot 2, Day 3, AI): −3.7 | AI740855 (83076_at) expression change (lot 2, Day 3, AI): −2.7 | AI760772 (58528_s_at) expression change (lot 2, Day 3, AI): −2 | AI770116 (70124_at) expression change (lot 2, Day 3, AI): −2.6 | AI798733 (64163_at) expression change (lot 2, Day 3, AI): −2.3 | AI829641 (84270_at) expression change (lot 2, Day 3, AI): −24.1 | AI917602 (49985_at) expression change (lot 2, Day 3, AI): −2.4 | AI948584 48086_at expression change (lot 2, Day 3, AI): −15.6 | AI984780 (52384_s_at) expression change (lot 2, Day 3, AI): −5.3 | AQP5 32909_at expression change (lot 2, Day 3, AI): −5.1 | AW022213 (79520_at) expression change (lot 2, Day 3, AI): −2.9 | AW025596 52634_at expression change (lot 2, Day 3, AI): −2 | AW025596 52637_g_at expression change (lot 2, Day 3, AI): −7.5 | B4GALT5 56373_at expression change (lot 2, Day 3, AI): −2.2 | BARX2 35425_at expression change (lot 2, Day 3, AI): −2.5 | BPGM (51261_at) expression change (lot 2, Day 3, AI): −2.5 | CBLB 514_at expression change (lot 2, Day 3, AI): −4.6 | CRABP-II 1057_at expression change (lot 2, Day 3, AI): −4.7 | CRABP-II 41783_at expression change (lot 2, Day 3, AI): −5.4 | DHCR24 (74557_s_at) expression change (lot 2, Day 3, AI): −2.1 | DKFZp434K1210 44682_at expression change (lot 2, Day 3, AI): −2.9 | DREV1 (63813_at) expression change (lot 2, Day 3, AI): −2.1 | DSC3a, b 47119_at expression change (lot 2, Day 3, AI): −2.2 | EIF4EBP1 (54152_at) expression change (lot 2, Day 3, AI): −2.3 | FLJ10298 (62490_f_at) expression change (lot 2, Day 3, AI): −3.4 | FLJ10718 52072_at expression change (lot 2, Day 3, AI): −5.5 | FLJ12541 43546_at expression change (lot 2, Day 3, AI): −3.8 | FLJ20048 (49196_at) expression change (lot 2, Day 3, AI): −2.3 | FLJ20373 54030_at expression change (lot 2, Day 3, AI): −2.4 | FLJ23516 47534_at expression change (lot 2, Day 3, AI): −2.6 | GJA1 32531_at expression change (lot 2, Day 3, AI): −6.8 | GSTA3 58023 at expression change (lot 2, Day 3, AI): −5.3 | HEY1 44783_s_at expression change (lot 2, Day 3, AI): −5.4 | HIN-1 (46200_at) expression change (lot 2, Day 3, AI): −28 | HSPC195 44705_at expression change (lot 2, Day 3, AI): −2 | ID1 36619_r_at expression change (lot 2, Day 3, AI): −2.3 | IVL 36355_at expression change (lot 2, Day 3, AI): −3.6 | K1IAA1102 (64345_s_at) expression change (lot 2, Day 3, AI): −3.2
